Test results from ChEMBL document CHEMBL1201862, “PubChem BioAssay data set” (2004).
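These data come from cells grown in 96-well plates and exposed to compound for 48 hours at five concentrations. At the GI50, growth is halved.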 Activity calls are given as the source filed them. No stated cut-off is given here; in the data, active = GI50 up to about 1.1 µM and inactive = higher.

Assays:
Assay in all cases: DTP human tumour cell line panel, 48 h
[1] = test system: SF-295
[2] = test system: SR
[3] = test system: HOP-62
[4] = test system: 786-0
[5] = test system: A498
[6] = test system: NCI-H23
[7] = test system: SK-MEL-28
[8] = test system: SN12C
[9] = test system: UACC-257
[10] = test system: SNB-19
[11] = test system: SF-539
[12] = test system: K562
[13] = test system: KM12
[14] = test system: OVCAR-8
[15] = test system: UACC-62
[16] = test system: U-251
[17] = test system: NCI-H522

Row | Structure (SMILES) | GI50 [1] | GI50 [2] | GI50 [3] | GI50 [4] | GI50 [5] | GI50 [6] | GI50 [7] | GI50 [8] | GI50 [9] | GI50 [10] | GI50 [11] | GI50 [12] | GI50 [13] | GI50 [14] | GI50 [15] | GI50 [16] | GI50 [17]
1 | CC1/C=C/[C@@]2(C)CCC(C(C)(C)O)C2C(O)C[C@](C)(O)/C=C/C1 (stereo partly drawn) | > 100 µM (inactive) | 66.5 µM (inactive) | > 100 µM (inactive) | 21.7 µM (inactive) | > 100 µM (inactive) | > 100 µM (inactive) | > 100 µM (inactive) | > 100 µM (inactive) | > 100 µM (inactive) | > 100 µM (inactive) | > 100 µM (inactive) | 65.9 µM (inactive) | > 100 µM (inactive) | > 100 µM (inactive) | > 100 µM (inactive) | > 100 µM (inactive) | 
2 | CCOC(=O)C1C(=O)c2cccc(OC)c2C2COC(=O)N12 (stereo not drawn) | > 100 µM (inactive) | > 100 µM (inactive) | > 100 µM (inactive) | > 100 µM (inactive) |  | > 100 µM (inactive) | > 100 µM (inactive) | > 100 µM (inactive) | > 100 µM (inactive) | > 100 µM (inactive) | > 100 µM (inactive) | > 100 µM (inactive) | > 100 µM (inactive) | > 100 µM (inactive) | > 100 µM (inactive) | > 100 µM (inactive) | > 100 µM (inactive)
3 | COc1ccc2oc(-c3ccc(OC)c(OC)c3OC)cc(=O)c2c1 | 51.6 µM (inactive) |  | 70.3 µM (inactive) | 72.4 µM (inactive) |  | 43.3 µM (inactive) | 62.2 µM (inactive) | 53.3 µM (inactive) | 55.6 µM (inactive) | 18.9 µM (inactive) | 31.2 µM (inactive) | 40.6 µM (inactive) |  |  | 55.2 µM (inactive) |  | 18.8 µM (inactive)
4 | CCOc1ccccc1NC(=O)C(=O)C(C(=O)c1ccc2ccccc2c1)C1OC(=O)c2ccccc21 (stereo not drawn) |  |  | 13.4 µM (inactive) | 7.78 µM (inactive) | 14.3 µM (inactive) | 7.64 µM (inactive) | 10.4 µM (inactive) | 15.5 µM (inactive) | 13.7 µM (inactive) | 4.53 µM (inactive) | 7.08 µM (inactive) | 17.1 µM (inactive) | 20.8 µM (inactive) | 8.49 µM (inactive) | 8.77 µM (inactive) | 6.64 µM (inactive) | 11.8 µM (inactive)
5 | COc1ccc2c(c1)C1C(CO2)C(c2ccccc2)=NN1c1ccccc1 (stereo not drawn) | > 100 µM (inactive) |  | > 100 µM (inactive) | > 100 µM (inactive) | > 100 µM (inactive) | > 100 µM (inactive) | 70.3 µM (inactive) |  | > 100 µM (inactive) |  | > 100 µM (inactive) | > 100 µM (inactive) | > 100 µM (inactive) | > 100 µM (inactive) |  | > 100 µM (inactive) | > 100 µM (inactive)
6 | O=C1N=C2Sc3ccc4ccccc4c3N2C1=O | 18.6 µM (inactive) | > 100 µM (inactive) | 19.2 µM (inactive) | 19.8 µM (inactive) |  | 22.5 µM (inactive) | 27 µM (inactive) | 20.3 µM (inactive) | 28.1 µM (inactive) | 20.4 µM (inactive) | 18.8 µM (inactive) | 33 µM (inactive) | 32.7 µM (inactive) | 18.4 µM (inactive) | 40.5 µM (inactive) | 20.5 µM (inactive) | 
7 | CC1=CCN(c2ccccn2)OC1c1ccccc1 (stereo not drawn) | > 100 µM (inactive) | 59.3 µM (inactive) | > 100 µM (inactive) | > 100 µM (inactive) |  | > 100 µM (inactive) | > 100 µM (inactive) | > 100 µM (inactive) | > 100 µM (inactive) | > 100 µM (inactive) | > 100 µM (inactive) | > 100 µM (inactive) | > 100 µM (inactive) | > 100 µM (inactive) | > 100 µM (inactive) | > 100 µM (inactive) | 54.6 µM (inactive)
8 | C=C(Br)C(C)(Br)CCC(Br)C(C)(C)Br (stereo not drawn) | 26.5 µM (inactive) | 13.4 µM (inactive) | 14.7 µM (inactive) | 22.5 µM (inactive) |  | 36.4 µM (inactive) | 19.1 µM (inactive) | 21.6 µM (inactive) | 36.8 µM (inactive) |  | 19.3 µM (inactive) | 21.4 µM (inactive) | 40.1 µM (inactive) | 17.5 µM (inactive) | 21 µM (inactive) | 17.1 µM (inactive) | 14.7 µM (inactive)
9 | C[N+](C)(C)CC(=O)N/N=C(/Cc1nc2ccc(Cl)cc2nc1O)C1=NS(=O)(=O)c2cc(S(N)(=O)=O)c(Cl)cc2N1 | > 100 µM (inactive) | > 100 µM (inactive) | > 100 µM (inactive) | > 100 µM (inactive) | > 100 µM (inactive) | > 100 µM (inactive) | > 100 µM (inactive) | > 100 µM (inactive) | > 100 µM (inactive) | > 100 µM (inactive) | > 100 µM (inactive) | > 100 µM (inactive) | > 100 µM (inactive) | > 100 µM (inactive) | > 100 µM (inactive) |  | > 100 µM (inactive)
10 | O=c1[nH]nc(-c2ccccc2)c(-c2ccccc2)c1-n1nc(-c2ccccc2)c2ccccc2c1=O | 43.2 µM (inactive) | 52.1 µM (inactive) | > 100 µM (inactive) | > 100 µM (inactive) | > 100 µM (inactive) | > 100 µM (inactive) | > 100 µM (inactive) | > 100 µM (inactive) | > 100 µM (inactive) |  | > 100 µM (inactive) | 27.9 µM (inactive) | 65.8 µM (inactive) | 92 µM (inactive) | > 100 µM (inactive) | 50.8 µM (inactive) | 34 µM (inactive)
11 | O=C(Nc1nnc(S)[nH]1)C(=O)C1C(=O)Nc2ccccc2[S+]1[O-] (stereo not drawn) | > 100 µM (inactive) | > 100 µM (inactive) | > 100 µM (inactive) | > 100 µM (inactive) |  | > 100 µM (inactive) | > 100 µM (inactive) | > 100 µM (inactive) | > 100 µM (inactive) | > 100 µM (inactive) | > 100 µM (inactive) |  | > 100 µM (inactive) | > 100 µM (inactive) | > 100 µM (inactive) |  | > 100 µM (inactive)
12 | c1ccc(SC(CCCCC(Sc2ccccc2)Sc2ccccc2)Sc2ccccc2)cc1 | > 100 µM (inactive) | > 100 µM (inactive) | > 100 µM (inactive) | > 100 µM (inactive) | > 100 µM (inactive) | > 100 µM (inactive) | > 100 µM (inactive) | > 100 µM (inactive) | > 100 µM (inactive) | > 100 µM (inactive) | > 100 µM (inactive) | > 100 µM (inactive) | > 100 µM (inactive) | > 100 µM (inactive) | > 100 µM (inactive) | > 100 µM (inactive) | 
13 | N=C1SCCS1 | > 100 µM (inactive) |  | > 100 µM (inactive) | > 100 µM (inactive) |  | > 100 µM (inactive) | > 100 µM (inactive) | > 100 µM (inactive) | > 100 µM (inactive) | > 100 µM (inactive) | > 100 µM (inactive) | > 100 µM (inactive) | > 100 µM (inactive) | > 100 µM (inactive) | > 100 µM (inactive) | > 100 µM (inactive) | > 100 µM (inactive)
14 | COc1ccccc1/C=C(\NC(=O)c1ccccc1)c1nc2ccc(Cl)cc2[nH]1 |  |  |  | 27.4 µM (inactive) | 25.4 µM (inactive) | 22.2 µM (inactive) | 27.1 µM (inactive) | 35.2 µM (inactive) | 32.7 µM (inactive) | 29.5 µM (inactive) | 56.2 µM (inactive) | 27.4 µM (inactive) | 23.7 µM (inactive) | 22.8 µM (inactive) | 17.5 µM (inactive) | 30.5 µM (inactive) | 15.6 µM (inactive)
15 | CO[C@@H]1C=C[C@@]23c4cc5c(cc4C(=O)O[C@H]2CN(C)[C@H]3C1)OCO5 | > 100 µM (inactive) | > 100 µM (inactive) |  | > 100 µM (inactive) | > 100 µM (inactive) | > 100 µM (inactive) | > 100 µM (inactive) | > 100 µM (inactive) | > 100 µM (inactive) | > 100 µM (inactive) | > 100 µM (inactive) | > 100 µM (inactive) | > 100 µM (inactive) | > 100 µM (inactive) | > 100 µM (inactive) | > 100 µM (inactive) | > 100 µM (inactive)
16 | O=C(N/N=C(/c1nc2ccc([N+](=O)[O-])cc2[nH]c1=O)C(O)c1ccc([N+](=O)[O-])cc1)c1ccncc1 (stereo not drawn) | > 100 µM (inactive) | > 100 µM (inactive) | 69.7 µM (inactive) | > 100 µM (inactive) | > 100 µM (inactive) | > 100 µM (inactive) | > 100 µM (inactive) | > 100 µM (inactive) | > 100 µM (inactive) |  | 75.5 µM (inactive) | 23.1 µM (inactive) | 59 µM (inactive) | > 100 µM (inactive) | > 100 µM (inactive) | > 100 µM (inactive) | 6.64 µM (inactive)
17 | CC1(C(=O)O)CCC[C@@]2(C)C1CC[C@@]1(C)c3cocc3CCC21 (stereo partly drawn) | > 100 µM (inactive) | > 100 µM (inactive) | > 100 µM (inactive) | 83.6 µM (inactive) | > 100 µM (inactive) | > 100 µM (inactive) | > 100 µM (inactive) | > 100 µM (inactive) | > 100 µM (inactive) | > 100 µM (inactive) | > 100 µM (inactive) | 40.9 µM (inactive) | > 100 µM (inactive) | > 100 µM (inactive) | > 100 µM (inactive) | 97.7 µM (inactive) | 
18 | [O-][n+]1c2cc(CBr)c(CBr)cc2[n+]([O-])c2c(O)cccc21 | 1.84 µM (inactive) | 0.248 µM (active) | 20.1 µM (inactive) | 1.58 µM (inactive) | 12.5 µM (inactive) | 2.72 µM (inactive) | 1.76 µM (inactive) | 1.73 µM (inactive) | 2.38 µM (inactive) | 5.26 µM (inactive) |  | 1.22 µM (inactive) | 1.9 µM (inactive) | 1.82 µM (inactive) | 1.79 µM (inactive) | 2.9 µM (inactive) | 0.538 µM (active)
